Entries after “also recorded” stand apart in the source; their conditions may differ.
What was measured:
[1] = tested on: Peritoneal exudate macrophages; test: Phagocytosis assay with fluorospheres; type: cell-based, C57BL/6 mice; settings: macrophages from treated mice, 90 minutes with fluorospheres, vs vehicle
Source text: (§1) For in vivo wound healing: C57BL/6 mice were anesthetized (same as above) and shaved, and skin incisions 1.5 cm in length were made along the midline. Each incision was then wound clipped shut for both vehicle and daily GW2580-treated C57BL/6 mice. Wound clips were removed and then replaced each imaging day up until day 7 (required to maintain them up until at least this time), after which clips were left off completely. Photos were acquired on days 0, 1, 4, 7, 10, and 14 post-incision. After 14 days, mice were sacrificed, and skin samples were prepared for histological assessment (H&E and Masson's Trichrome) of both vehicle and GW2580 treatment groups. Cross-sections through the incision line were generated to assess the level of in vivo healing following a 14-day treatment regimen. For IP innate immune cell counts, FACS, and phagocytosis assays: cells were isolated by peritoneal lavage with 8 mL DPBS, diluted into RPMI, and then subsequently counted, and aliquoted either for staining and FACS analysis (as described above), or for phagocytosis assays. […] Following appropriate incubation times, samples were read in a black-wall 96-well plate with a Tecan fluorescent-capable Infinite M1000 plate reader.

C57BL/6 mice [2] = test: FACS analysis of immune cells dissociated from retrieved spheres, tissue and spleen; type: in vivo
Procedure: For targeted macrophage depletions, clodrosome (200 μL/mouse) (Encapsula Nano Sciences, Nashville, Tenn.) were injected intraperitoneally starting at −3 days (prior to implantation, day 0), and for every 7 days thereafter (so days −3, 4, and 11). To achieve neutrophil depletion, affinity purified anti-Ly6g (Clone 1A8) antibody (250 ug/mouse) (BioLegend, San Diego, Calif.) was administered also starting at day −3, and every 3 days thereafter (except the day of implantation). For the combination therapy, in order to avoid drug-antibody interactions, each agent was administered 4 hours apart from one another. To neutralize secreted CXCL13, anti-CXCL13 antibody (mAB470, R&D Systems) was injected i.p. in sterile 1×PBS at a dose of 100 μg/mouse, once every 3 days, starting 3 days prior to implantation as well. For selective macrophage inhibition and polarization, the CSF1R-targeted inhibitor GW2580 (LC Labs, Woburn, Mass.), was dissolved in a 1:1 DMSO/PEG400 solution, and injected daily (starting 1 day prior to implantation) at a dose of 160 mg/kg BW subcutaneously (s.c.), to eliminate concerns of vehicle directly perturbing responding immune cells as well as a recovering implant site.
Single-cell suspensions of freshly excised tissues were prepared using a gentleMACS Dissociator (Miltenyi Biotec, Auburn, Calif.) according to the manufacturer's protocol. […]

CXCL10 = CXCL10 ELISA of protein lysates from retrieved alginate spheres and tissue; type: in vivo, C57BL/6 mice; settings: lysates of alginate spheres and tissue retrieved at 14 days
VEGF = VEGF Luminex protein quantification of protein lysates; type: in vivo, C57BL/6 mice; settings: lysates of alginate spheres and tissue retrieved at 14 days
Procedure: (§2) For targeted macrophage depletions, clodrosome (200 μL/mouse) (Encapsula Nano Sciences, Nashville, Tenn.) were injected intraperitoneally starting at −3 days (prior to implantation, day 0), and for every 7 days thereafter (so days −3, 4, and 11). To achieve neutrophil depletion, affinity purified anti-Ly6g (Clone 1A8) antibody (250 ug/mouse) (BioLegend, San Diego, Calif.) was administered also starting at day −3, and every 3 days thereafter (except the day of implantation). For the combination therapy, in order to avoid drug-antibody interactions, each agent was administered 4 hours apart from one another. […]
Cytokine array analysis was performed using the Luminex Bio-Rad Bio-Plex Pro mouse cytokine panel based on Luminex beads (multiplexing both the 23 and 8-cytokine arrays) (Bio-Rad, Hercules, Calif.), according to manufacturer's instructions. 1:4 diluted mouse sera samples were analyzed for the time course, and protein lysates taken from fibrosed tissue and alginate microspheres, loaded at a concentration of 500 μg/mL (200 uL per sample), were run to compare cytokine responses across mock (saline) treated versus wildtype, knockout or serially perturbed/depleted C57BL/6 mice implanted with 500 μm SLG20 alginate spheres. […] The plate was then read on a BioPlex-200 plate reader, with absolute concentrations obtained through fitting a standard curve. […]

C57BL/6 mice [3] = test: In vivo wound healing of skin incisions
Source text: as §1, with “assays. Peritoneal exudate macrophages isolated by IP lavage from (n=5) mice in each treatment group were immediately plated (400,000 cells/well in a 24-well plate) and incubated with fluorospheres for 90 minutes to determine phagocytic activity. 1 μm orange fluorospheres (540/560) (Cat# F13082, Invitrogen, Carlsbad, Calif.) were added to each well in a volume of 500 μL from an initial dilution of 20 μL into 10 mL. After addition, plates were spun down at 1,000 rpm for 1 min, and then placed in an incubator for 90 minutes to allow IP macrophages time to phagocytose the 1 μm diameter fluorospheres. Following the 90-minute incubation, all wells were fixed with 4% paraformaldehyde and stored at 4 C prior to imaging using a fluorescent and brightfield-capable EVOS microscope (Advanced Microscopy Group).” for “assays.”

C57BL/6 mice [4] = test: Peritoneal lavage IP immune cell counts and FACS macrophage phenotype; type: in vivo
Procedure: Single-cell suspensions of freshly excised tissues were prepared using a gentleMACS Dissociator (Miltenyi Biotec, Auburn, Calif.) according to the manufacturer's protocol. Single-cell suspensions were prepared in a passive PEB dissociation buffer (1×PBS, pH 7.2, 0.5% BSA, and 2 mM EDTA) and suspensions were passed through 70 μm filters (Cat. #22363548, Fisher Scientific, Pittsburgh, Pa.). […] All tissue and material sample-derived, single-cell populations were then subjected to red blood cell lysis with 5 ml of 1×RBC lysis buffer (Cat. #00-4333, eBioscience, San Diego, Calif., USA) for 5 min at 4° C. The reaction was terminated by the addition of 20 ml of sterile 1×PBS. The cells remaining were centrifuged at 300-400g at 4° C. and resuspended in a minimal volume (˜50 μl) of eBioscience Staining Buffer (cat. #00-4222) for antibody incubation. […] For alpha smooth muscle actin (fibrosis) analysis, additional cell aliquots were also fixed in 1% paraformaldehyde and permeabilized with 0.1% triton X-100 before being stained with Cy3-conjugated anti-mouse αSM actin antibody (1:100) (Sigma Aldrich, St. Louis, Mo.). […]

[5] = tested on: reactive oxygen specie (ROS); test: ROS activity assessment of protein lysates from retrieved alginate spheres; type: in vivo, C57BL/6 mice; settings: lysates from alginate spheres 14 days after IP implantation, two ROS substrates, vs untreated and vehicle
C57BL/6 mice [6] = test: NanoString expression analysis of mouse cytokines and cytokine receptors; type: in vivo
Procedure: as §2, with “another. To neutralize secreted CXCL13, anti-CXCL13 antibody (mAB470, R&D Systems) was injected i.p. in sterile 1×PBS at a dose of 100 μg/mouse, once every 3 days, starting 3 days prior to implantation as well.” for “another.”
RNAs for mock-implanted (saline) treated controls, or for 500 μm alginate sphere-bearing C57BL/6 mouse strains (n=4/group), including wild type, knockouts, and serially immune depleted wild type mice, were isolated from tissue samples taken at various time points after implantation, as described. […] In general, respective RNAs were quantified, normalized to the appropriate loading concentration (100 ng/μl), and then 500 ng of each sample was processed according to NanoString manufacturer protocols for expression analysis via our customized multiplexed total (known) mouse cytokine and cytokine receptor expression panel, used for both immune strain comparisons with alginate, and material class comparisons just the wild type C57BL/6 strain. […] RNA levels (absolute copy numbers) were obtained following nCounter (NanoString Technologies Inc., Seattle, Wash.) quantification, and group samples were analyzed using nSolver analysis software (NanoString Technologies Inc., Seattle, Wash.).

C57BL/6 mice [7] = test: Fibrosis of implanted material spheres retrieved after 14-day intraperitoneal implantation (phase contrast / brightfield imaging); type: in vivo
Source text: All protocols were approved by the MIT Committee on Animal Care, and all surgical procedures and post-operative care were supervised by MIT Division of Comparative Medicine veterinary staff. All mice, wild type male immune-competent (non-diabetic), STZ-induced diabetic, as well as knockout C57BL/6 mice, were ordered pathogen-free from Jackson Laboratory (Bar Harbor, Me.) or Taconic (Hudson, N.Y.). The status of all mice was subsequently verified by testing sentinel animals, shown to be negative for at least 12 known mouse pathogens. Implanted mice were anesthetized with 3% isoflurane in oxygen and had their abdomens shaved and sterilized using betadine and isopropanol. C57BL/6-Nude (T KO, B6NU), C57BL/6-Rag2^null (T & B KO, RAGN12), C57BL/6-Rag2^null/Il2rγ^null (Rag2/γ, 4111) were ordered from Taconic (Hudson, N.Y.), and C57BL/6-IghM^null (BKO, 002288), (C57BL/6) B6.12956-Ccr6tm1(EGFP)Irw/J. (Ccr6, 013061), and C57BL/6-C3 KO (C3 KO, 003641) mice were ordered from Jackson Laboratory, Bar Harbor, Me.). Preoperatively, all mice received 0.05 mg/kg buprenorphine and 0.2 mL of 0.9% saline subcutaneously for pre-surgery analgesia and dehydration prevention. A midline (abdomen) incision (0.5 mm) was made and the peritoneal lining was exposed using blunt dissection. The peritoneal wall was then grasped with forceps and a 0.5-1 mm incision was made along the linea alba. A desired volume of spheres (all materials) were then loaded into a sterile pipette and implanted into the peritoneal cavity. The incision was then closed using 5-0 taper-tipped polydioxanone (PDS II) absorbable sutures, and the skin was closed using a wound clip and VetBond tissue glue. For subcutaneous implantation, ˜200-300 μL of 500 μm SLG20 spheres were injected s.c. following anesthesia with isofluorane. […]

[8] = RNA extracts 14 days post-implant, alginate

COc1ccc(COc2ccc(Cc3cnc(N)nc3N)cc2OC)cc1 [GW2580]
phagocytic activity [1]: no significant differences
macrophage, neutrophil and B cell presence on spheres (normalized to cell counts from 100 μl material) (C57BL/6 mice [2]; alginate spheres, 14 days post-i.p. implant): complete loss
inhibition of host immune attack to alginate, glass and polystyrene spheres (C57BL/6 mice [2]; compared with clodrosome-based macrophage depletion, 14 days i.p.): as effective as clodrosome-based macrophage depletion
CXCL10 protein level (CXCL10): increased reduction of CXCL10 back to wildtype levels
VEGF protein production (VEGF): spared to normal levels
incision site closure at day 7 (C57BL/6 mice [3]; 1.5 cm skin incision, daily treatment, day 7, skin stretched apart): shut and not pulling apart
scarring at day 14 (C57BL/6 mice [3]; 1.5 cm skin incision, daily treatment, day 14): very little scarring
wound resolution and healing potential by width and depth measurements (histology) (C57BL/6 mice [3]; day 14 post-incision, vs vehicle): no significant (ns) differences
IP macrophage phenotype (CD68 & CD11b staining) (C57BL/6 mice [4]; peritoneal lavage after 4 and 14 days of daily treatment, vs vehicle): shifted (decreased CD68 & CD11b intensities)
overall cell numbers in the peritoneal exudate (C57BL/6 mice [4]; vs untreated and vehicle-treated): unchanged
ROS activity [5]: no differences
expression of macrophage-associated (downstream) factors (FIG. 13F) (C57BL/6 mice [6]; [8]): inhibited
expression of macrophage-specific factors (FIG. 13D) (C57BL/6 mice [6]; [8]): inhibited
expression of non-immune-associated upstream inflammation-associated gene family (FIG. 18B) (C57BL/6 mice [6]; alginate-implanted mice, 14 days): decreased back to mock implanted (saline) control levels
fibrosis on 500 μm alginate spheres (C57BL/6 mice [7]; SLG20 alginate 500 μm spheres, 14 day implant, vs wild type/vehicle control): prevented the fibrotic response; also recorded: completely eliminated; also recorded: prevents fibrosis
fibrosis on 500 μm glass ceramic spheres (C57BL/6 mice [7]; glass spheres, 14 days, vs saline vehicle): prevented the fibrotic response; also recorded: prevents fibrosis
fibrosis on 500 μm polystyrene polymer spheres (C57BL/6 mice [7]; polystyrene spheres, 14 days, vs saline vehicle): prevented the fibrotic response; also recorded: prevents fibrosis

Source: US20190083495A1, “Methods Of Preventing Or Reducing A Fibrotic Response Using CSF1R Inhibitors” (Massachusetts Institute of Technology, priority 2016, published 2019)
